Measured values as given in the PolyMetriX glass transition set.

SMILES	glass transition temperature [°C]
*C(=O)Nc1ccc(Oc2cccc(Oc3ccc(NC(=O)c4ccc5c(c4)C(=O)N(c4ccc(Sc6ccc(Oc7ccc(Sc8ccc(N9C(=O)c%10ccc(*)cc%10C9=O)cc8)cc7)cc6)cc4)C5=O)cc3)c2)cc1 (repeat unit)	179.00
*CC1CC2CC1C1CCC(Cn3c(=O)c4cc5c(=O)n(*)c(=O)c5cc4c3=O)C21 (repeat unit)	265.00
*/C=C/CCCCCCCCCC* (repeat unit)	-53.00
*c1ccc(Oc2cccc(NC(=O)c3cc(NC(=O)c4ccc(OC(C)=O)cc4)cc(C(=O)Nc4cccc(Oc5ccc(-c6nnc(*)o6)cc5)c4)c3)c2)cc1 (repeat unit)	270.00
*O[Si](C)(C)O[Si](C)(C)O[Si](C)(C)O[Si](C)(C)Oc1c(*)c2ccccc2c2ccccc12 (repeat unit)	-35.00
*c1ccc(N(c2ccc(C#N)cc2)c2ccc(N3C(=O)c4ccc(Oc5ccc(C6(c7ccc(Oc8ccc9c(c8)C(=O)N(*)C9=O)cc7)CCCCC6)cc5)cc4C3=O)cc2)cc1 (repeat unit)	243.00
*CC(*)c1cccc(C)n1 (repeat unit)	92.00
*CC(*)(C)C(=O)OCCCCCCC(F)(F)C(F)(F)C(F)(F)C(F)(F)C(F)(F)C(F)(F)C(F)(F)C(F)(F)C(F)(F)C(F)(F)C(F)(F)C(F)(F)F (repeat unit)	84.00
*CCC1C(=O)N(CCCCNC(=O)C(F)(F)C(F)(F)C(F)(F)C(F)(F)C(F)(F)C(F)(F)C(F)(F)F)C(=O)C1* (repeat unit)	100.00
*Oc1ccc(OC(=O)c2ccc(C(*)=O)cc2Oc2ccc(C3CCCCC3)cc2)cc1 (repeat unit)	113.00
*C(=O)Nc1ccc(Cc2ccc(NC(=O)c3ccc4c(c3)C(=O)N(c3ccc(/N=N/c5ccc(C)cc5)c(N5C(=O)c6ccc(*)cc6C5=O)c3)C4=O)cc2)cc1 (repeat unit)	268.00
*C(=O)c1ccc2c(c1)C(=O)N(c1ccc(C(c3ccccc3)(c3ccc(N4C(=O)c5ccc(*)cc5C4=O)cc3)C(F)(F)F)cc1)C2=O (repeat unit)	311.00
*c1ccc(N2C(=O)c3ccc(Oc4ccc(C(C)(C)c5ccc(Oc6ccc7c(c6)C(=O)N(c6ccc8[nH]c(*)nc8c6)C7=O)cc5)cc4)cc3C2=O)cc1 (repeat unit)	324.00
*c1ccc(S(=O)(=O)c2ccc(Oc3ccc(-c4nn(*)c(=O)c5ccccc45)c(F)c3)cc2)cc1 (repeat unit)	283.00
*C1OC(C(F)(F)F)(C(F)(F)F)OC1(*)F (repeat unit)	256.00
*c1ccc(Oc2ccc(Oc3ccc(-c4nc(*)nc(-c5ccccc5)n4)cc3)cc2)cc1 (repeat unit)	244.00
*C(F)C(*)(F)F (repeat unit)	31.5
*c1ccc(Oc2ccc(C(C)(C)c3ccc(Oc4ccc(-c5nc(*)nc(-c6ccccc6)n5)cc4)cc3)cc2)cc1 (repeat unit)	228.00
*[Si](*)(CCCC)CCCC (repeat unit)	-40.50
*C(=O)c1ccc2c(c1)C(=O)N(c1ccc(OCCOCCOCCOc3ccc(N4C(=O)c5ccc(*)cc5C4=O)cc3)cc1)C2=O (repeat unit)	200.00
*CC(*)CC1CCCCC1 (repeat unit)	75.00
*O[Si](*)(C)CCCCC(=O)OCCCCCCCCCCC(F)(F)C(F)(F)C(F)(F)C(F)(F)C(F)(F)C(F)(F)C(F)(F)C(F)(F)F (repeat unit)	-78.00
*Oc1ccc(CC(NC(=O)CCc2ccc(OC(=O)COCC(*)=O)cc2)C(=O)OCCCC)cc1 (repeat unit)	64.00
*Oc1ccc(S(=O)(=O)c2ccc(*)cc2)c2ccccc12 (repeat unit)	238.00

Second part, the molecule after the results:

glass transition temperature [°C]	SMILES
78.00	*CCCCCCCCCCCCCCCCCCNC(=O)Cc1ccc(CC(=O)N*)cc1 (repeat unit)
84.00	*CCCCCOC(=O)OCCCCCN1C(=O)c2ccc(-c3ccc4c(c3)C(=O)N(*)C4=O)cc2C1=O (repeat unit)
134.00	*OS(=O)(=O)c1cc(S(=O)(=O)Oc2ccc(C3(c4ccc(*)cc4)CCCC3)cc2)ccc1C (repeat unit)
136.00	*CCCCNC(=O)c1ccc(C(=O)N*)c(Sc2ccccc2)c1 (repeat unit)
217.00	*Oc1ccc(C2(c3ccc(OC(*)=O)c(C)c3)CC3CC2C2CCCC32)cc1C (repeat unit)
367.00	*C(=O)Nc1ccc(S(=O)(=O)c2ccc(NC(=O)c3ccc4c(c3)C(=O)N(c3cc(-c5nc6ccccc6o5)cc(N5C(=O)c6ccc(*)cc6C5=O)c3)C4=O)cc2)cc1 (repeat unit)
155.00	*C(=O)c1ccc2c(c1)C(=O)N(c1cccc(OCCOCCOc3cccc(N4C(=O)c5ccc(*)cc5C4=O)c3)c1)C2=O (repeat unit)
128.00	*CC(*)(C)C(=O)OCC(=O)Nc1cc(C)on1 (repeat unit)
145.00	*CC(*)C(=O)Oc1c(Cl)c(Cl)c(Cl)c(Cl)c1Cl (repeat unit)
55.00	*CCCCCCCNC(=O)CCCCC(=O)N* (repeat unit)
287.00	*Oc1ccc(NC(=O)c2ccc(S(=O)(=O)c3ccc(C(=O)Nc4ccc(Oc5ccc(C6(c7ccc(*)cc7)CC7CCC6C7)cc5)cc4)cc3)cc2)cc1 (repeat unit)
36.00	*Oc1ccc(C(=O)OC(C)COC(C)COC(C)COC(=O)c2ccc(OC(=O)c3ccc(C(*)=O)cc3)cc2)cc1 (repeat unit)
332.00	*c1ccc(Nc2c(F)c(F)c(-c3c(F)c(F)c(Nc4ccc(S(*)(=O)=O)cc4)c(F)c3F)c(F)c2F)cc1 (repeat unit)
144.60	*Oc1ccc(Oc2ccc(Nc3ccc(S(=O)(=O)c4ccc(Nc5ccc(*)cc5)cc4)cc3)cc2)cc1 (repeat unit)
157.00	*c1ccc(S(=O)(=O)c2ccc(N3C(=O)C(C)C(SCCOCCSC4C(=O)N(c5ccc(S(=O)(=O)c6ccc(N7C(=O)CC(C)(SCCOCCSC8(C)CC(=O)N(*)C8=O)C7=O)cc6)cc5)C(=O)C4C)C3=O)cc2)cc1 (repeat unit)
100.00	*Cc1ccc(CNC(=O)CCCCCCCCCCCC(=O)N*)cc1 (repeat unit)
165.00	*Oc1ccc(C(c2ccc(OC(*)=O)cc2)C(Cl)Cl)cc1 (repeat unit)
145.00	*c1ccc(Nc2ccc(C3(c4ccc(Nc5ccc(S(*)(=O)=O)cc5)c(F)c4)c4ccccc4-c4ccccc43)cc2F)cc1 (repeat unit)
-2.40	*[O][Ca][O]C(=O)c1ccccc1C(=O)OCCCCCOC(=O)NCCCCCCNC(=O)OCCCCCOC(=O)c1ccccc1C(*)=O (repeat unit)
290.00	*Oc1ccc(-c2ccc(Oc3ccc(C(=O)c4c(C(=O)c5ccc(*)cc5)c(-c5ccccc5)c(-c5ccc6ccccc6c5)c(-c5ccc6ccccc6c5)c4-c4ccccc4)cc3)cc2)cc1 (repeat unit)
58.00	*Oc1ccc(C(C)(C)c2ccc(OC(=O)SCCCCCCSC(*)=O)cc2)cc1 (repeat unit)
